Data reported in ChEMBL document CHEMBL5500338, “Design, synthesis, and biological evaluation of piperazine derivatives as pan-PPARs agonists for the treatment of liver fibrosis” (Eur J Med Chem, 2024).
pEC50: −log10 of the molar value.

Columns and labels:
Type in all cases: cell-based
[1] = biological target: T1, Peroxisome proliferator-activated receptor gamma (Homo sapiens, UniProt P37231); assay: Agonist activity at human PPARgamma transfected in African green monkey COS-7 cells co-transfected with pGL4.35 and pBIND reporter gene plasmid assessed as receptor transactivation incubated for 16 hrs by luciferase reporter gene assay
T1 sequence (P37231 whole entry): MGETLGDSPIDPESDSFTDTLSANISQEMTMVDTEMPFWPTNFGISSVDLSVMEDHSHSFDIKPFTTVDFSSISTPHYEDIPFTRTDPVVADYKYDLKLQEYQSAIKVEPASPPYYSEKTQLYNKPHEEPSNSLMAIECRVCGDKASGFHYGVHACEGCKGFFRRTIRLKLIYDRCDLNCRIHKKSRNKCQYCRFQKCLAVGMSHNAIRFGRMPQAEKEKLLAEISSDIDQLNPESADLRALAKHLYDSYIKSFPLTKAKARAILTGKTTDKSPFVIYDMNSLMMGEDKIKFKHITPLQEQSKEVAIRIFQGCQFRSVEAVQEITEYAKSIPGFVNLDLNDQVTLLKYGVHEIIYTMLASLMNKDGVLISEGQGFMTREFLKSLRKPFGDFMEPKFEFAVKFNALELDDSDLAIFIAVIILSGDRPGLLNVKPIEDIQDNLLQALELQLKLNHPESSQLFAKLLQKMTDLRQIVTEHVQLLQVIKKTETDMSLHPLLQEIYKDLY

[2] = biological target: T2, Peroxisome proliferator-activated receptor alpha (Homo sapiens, UniProt Q07869); assay: Agonist activity at human PPARalpha transfected in African green monkey COS-7 cells co-transfected with pGL4.35 and pBIND reporter gene plasmid assessed as receptor transactivation incubated for 16 hrs by luciferase reporter gene assay
T2 sequence (Q07869 whole entry): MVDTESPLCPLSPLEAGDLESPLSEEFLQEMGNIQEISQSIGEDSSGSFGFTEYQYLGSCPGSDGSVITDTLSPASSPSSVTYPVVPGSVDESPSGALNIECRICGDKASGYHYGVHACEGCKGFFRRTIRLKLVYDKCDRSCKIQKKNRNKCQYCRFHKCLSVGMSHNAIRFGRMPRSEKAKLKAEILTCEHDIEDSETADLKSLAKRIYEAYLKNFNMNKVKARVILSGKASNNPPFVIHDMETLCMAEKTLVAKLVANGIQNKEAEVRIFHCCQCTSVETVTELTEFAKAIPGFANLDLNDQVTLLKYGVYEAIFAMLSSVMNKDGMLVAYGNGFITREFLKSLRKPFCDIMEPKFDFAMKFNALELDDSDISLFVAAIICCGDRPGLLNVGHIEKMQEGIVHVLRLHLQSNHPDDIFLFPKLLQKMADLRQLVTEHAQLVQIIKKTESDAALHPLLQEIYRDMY

[3] = biological target: T3, Peroxisome proliferator-activated receptor delta (Homo sapiens, UniProt Q03181); assay: Agonist activity at human PPARdelta transfected in African green monkey COS-7 cells co-transfected with pGL4.35 and pBIND reporter gene plasmid assessed as receptor transactivation incubated for 16 hrs by luciferase reporter gene assay
T3 sequence (Q03181 whole entry): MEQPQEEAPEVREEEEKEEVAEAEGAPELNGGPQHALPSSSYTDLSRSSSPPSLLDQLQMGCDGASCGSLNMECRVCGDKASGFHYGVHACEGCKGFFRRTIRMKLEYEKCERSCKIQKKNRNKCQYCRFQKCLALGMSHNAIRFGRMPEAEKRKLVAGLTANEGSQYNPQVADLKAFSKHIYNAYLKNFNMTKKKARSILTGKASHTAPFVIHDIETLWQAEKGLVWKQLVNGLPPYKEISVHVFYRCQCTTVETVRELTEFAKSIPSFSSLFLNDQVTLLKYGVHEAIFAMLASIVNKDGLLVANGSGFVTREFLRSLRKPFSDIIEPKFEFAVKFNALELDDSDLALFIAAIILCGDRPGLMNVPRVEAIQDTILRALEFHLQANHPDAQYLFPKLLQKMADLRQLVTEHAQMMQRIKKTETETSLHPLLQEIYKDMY

Row | SMILES | pEC50 [1] | pEC50 [2] | pEC50 [3]
1 | Cc1cc(CN2CCN(c3ccc(C(F)(F)F)cc3)CC2)ccc1OC(C)(C)C(=O)O | < 5.00 | – | –
2 | O=C(O)CCCc1cc2cc(Cl)ccc2n1S(=O)(=O)c1ccc2ncsc2c1 [LANIFIBRANOR] | 6.22 | 5.49 | 5.54
3 | Cc1c(CN2CCN(c3ccc(C(F)(F)F)cc3)CC2)ccc(OC(C)(C)C(=O)O)c1C | < 5.00 | – | –
4 | Cc1cc(CN2CCN(c3cnc(C(F)(F)F)nc3)CC2)cc(C)c1OC(C)(C)C(=O)O | < 5.00 | – | 5.49
5 | Cc1cc(CN2CCN(Cc3ccc(C(F)(F)F)cn3)CC2)cc(C)c1OC(C)(C)C(=O)O | 5.07 | – | 5.70
6 | CC(C)(Oc1ccc(CCNC(=O)c2ccc(Cl)cc2)cc1)C(=O)O [BEZAFIBRATE] | 4.88 | – | 4.30
7 | Cc1cc(CN2CCN(Cc3ccc(C(F)(F)F)nc3)CC2)cc(C)c1OC(C)(C)C(=O)O | < 5.00 | – | –
8 | Cc1cc(OC(C)(C)C(=O)O)ccc1CN1CCN(c2ccc(C(F)(F)F)cc2)CC1 | – | < 5.00 | –
9 | CC(C)(Oc1ccc(CN2CCN(c3ccc(C(F)(F)F)cc3)CC2)cc1)C(=O)O | < 5.00 | – | 5.36
10 | Cc1cc(CN2CCN(c3ncc(C(F)(F)F)cn3)CC2)cc(C)c1OC(C)(C)C(=O)O | – | – | 6.10

Now from value to molecule:

Row | pEC50 [1] | pEC50 [2] | pEC50 [3] | SMILES
11 | – | – | < 5.00 | Cc1ccc(N2CCN(Cc3cc(C)c(OC(C)(C)C(=O)O)c(C)c3)CC2)nc1
12 | – | – | < 5.00 | Cc1cc(CN2CCN(c3ccccn3)CC2)cc(C)c1OC(C)(C)C(=O)O
13 | < 5.00 | – | 6.10 | Cc1cc(CN2CCN(c3ccc(C(F)(F)F)cc3)CC2)cc(C)c1OC(C)(C)C(=O)O
14 | < 5.00 | – | – | Cc1cc(CN2CCN(c3ccc(C(F)(F)F)nc3)CC2)cc(C)c1OC(C)(C)C(=O)O
15 | – | – | < 5.00 | Cc1cc(CN2CCN(c3ncccc3C(F)(F)F)CC2)cc(C)c1OC(C)(C)C(=O)O
16 | 5.14 | – | < 5.00 | Cc1cc(CN2CCN(c3ccc(F)cn3)CC2)cc(C)c1OC(C)(C)C(=O)O
